This passage reports inhibition results from ChEMBL document CHEMBL5236603, “Discovery of mobocertinib, a potent, oral inhibitor of EGFR exon 20 insertion mutations in non-small cell lung cancer” (Bioorg Med Chem Lett, 2023).

In the test the target is T1, Cytoplasmic tyrosine-protein kinase BMX (Homo sapiens) (UniProt P51813).
T1 sequence (whole entry): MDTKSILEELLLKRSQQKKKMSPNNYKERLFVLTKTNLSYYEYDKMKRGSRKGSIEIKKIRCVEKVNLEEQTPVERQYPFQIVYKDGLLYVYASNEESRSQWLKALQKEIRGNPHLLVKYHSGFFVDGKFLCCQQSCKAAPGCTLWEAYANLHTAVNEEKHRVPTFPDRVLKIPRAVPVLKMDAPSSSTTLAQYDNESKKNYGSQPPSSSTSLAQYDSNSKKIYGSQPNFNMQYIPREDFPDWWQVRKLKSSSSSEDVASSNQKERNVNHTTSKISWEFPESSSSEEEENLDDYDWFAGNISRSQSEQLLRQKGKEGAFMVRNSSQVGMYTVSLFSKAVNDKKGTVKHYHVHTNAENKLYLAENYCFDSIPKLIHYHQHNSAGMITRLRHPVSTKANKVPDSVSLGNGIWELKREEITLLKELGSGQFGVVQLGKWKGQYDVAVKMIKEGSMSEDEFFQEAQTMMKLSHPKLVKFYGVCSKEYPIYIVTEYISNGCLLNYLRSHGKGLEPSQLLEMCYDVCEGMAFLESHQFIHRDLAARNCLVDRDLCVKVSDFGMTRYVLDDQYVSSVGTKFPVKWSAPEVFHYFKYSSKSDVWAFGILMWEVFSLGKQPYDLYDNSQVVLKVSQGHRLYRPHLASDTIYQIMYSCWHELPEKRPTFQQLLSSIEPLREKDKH
The test is described as follows: Inhibition of human BMX at 1 uM by hotspot assay relative to control.

In the case of `C=CC(=O)Nc1cc(Nc2ncc(C(=O)OC(C)C)c(-c3cn(C)c4ccccc34)n2)c(OC)cc1N(C)CCN(C)C` [MOBOCERTINIB], the inhibition is > 81%.

For orientation: inhibition means the share of the control response that was lost under treatment. A low value points to a weak effect.
